From patent US20260256751A1, “COMBINATION OF BETA-2-ADRENERGIC RECEPTOR AGONISTS AND GLP-1 RECEPTOR AGONISTS FOR USE IN TREATING HYPERGLYCAEMIA” (ATROGI AB, priority 2023, published 2026)

Experiments:
[1] = tested on: differentiated L6-myotubes; test: Glucose uptake screen (Biological example 1 of WO 2019/053427); format: cell-based; settings: compound at 10 μM, activity relative to isoproterenol at 10 μM, read-out: Biological example 1 of WO 2019/053427 (GU)
Method in brief: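 Uptake was read out as ^3H-2-deoxyglucose (50 nM, 10 min) radioactivity in NaOH lysates. Beforehand, overnight-starved, differentiated L6 myotubes received compound at 1×10^−5 M with ICI-118551 present for 1 h 40 min, followed by fresh agonist for a further 20 min in glucose-free medium.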

[2] = tested on: differentiated L6-myotubes; test: cAMP production relative to isoprenaline (Biological example 2 of WO 2019/053427); format: cell-based; settings: 0.25 h, compound at 10 μM, activity relative to isoproterenol at 10 μM
Method in brief: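 Values are cAMP levels relative to isoprenaline at equal concentration (final 1×10^−5 M for both). Stimulation lasted 15 min in differentiated L6 myotubes, using HBSS buffer (pH 7.4) containing 1 mM IBMX, 5 mM HEPES and 1% BSA.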

Compound | Emax at 10 µM [1] [%] | Emax at 10 µM [2] [%]
CC(=O)N(Cc1ccccc1)[C@H]1CC[C@H](C[C@@H]2CC[C@H]([C@H](O)c3cccc(F)c3)N2)CC1 [Compound 482, N-[(1S,4r)-4-({(2S,5R)-5-[(R)-(m-fluorophenyl)hydroxymethyl]-2-pyrrolidinyl}methyl)cyclohexyl]-N-benzylacetamide] | < 25 | < 25
CC(=O)N[C@H]1CC[C@@H](C[C@@H]2CC[C@H]([C@@H](O)c3cccc(F)c3)N2)CC1 [Compound 483, N-[(1R,4s)-4-({(2S,5R)-5-[(S)-(m-fluorophenyl)hydroxymethyl]-2-pyrrolidinyl}methyl)cyclohexyl]acetamide] | < 25 | < 25
CC(=O)N[C@H]1CC[C@@H](C[C@@H]2CC[C@H]([C@H](O)c3cccc(F)c3)N2)CC1 [Compound 484, N-[(1R,4s)-4-({(2S,5R)-5-[(R)-(m-fluorophenyl)hydroxymethyl]-2-pyrrolidinyl}methyl)cyclohexyl]acetamide] | 50 to 75 | < 25
CC(=O)N[C@H]1CC[C@H](C[C@@H]2CC[C@H]([C@H](O)c3cccc(F)c3)N2)CC1 [Compound 485, N-[(1S,4r)-4-({(2S,5R)-5-[(R)-(m-fluorophenyl)hydroxymethyl]-2-pyrrolidinyl}methyl)cyclohexyl]acetamide] | 50 to 75 | < 25
CC(=O)N[C@H]1CC[C@H](C[C@@H]2CC[C@H]([C@@H](O)c3cccc(F)c3)N2)CC1 [Compound 486, N-[(1S,4r)-4-({(2S,5R)-5-[(S)-(m-fluorophenyl)hydroxymethyl]-2-pyrrolidinyl}methyl)cyclohexyl]acetamide] | 50 to 75 | < 25
O[C@@H](c1cccc(F)c1)C12CCC(COCc3ccc(OC(F)(F)F)cc3)(CC1)N2 [Compound 487, (S)-(m-fluorophenyl)(4-{[(p-trifluoromethoxyphenyl)methoxy]methyl}-7-azabicylco[2.2.1]hept-1-yl)methanol] | < 25 | < 25
O[C@H](c1cccc(F)c1)C12CCC(COCc3ccc(OC(F)(F)F)cc3)(CC1)N2 [Compound 488, (R)-(m-fluorophenyl)(4-{[(p-trifluoromethoxyphenyl)methoxy]methyl}-7-azabicyclo[2.2.1]hept-1-yl)methanol] | < 25 | < 25
O[C@@H](c1cncc(F)c1)C12CCC(COCc3ccc(OC(F)(F)F)cc3)(CC1)N2 [Compound 489, (S)-(5-fluoro-3-pyridyl)(4-{[(p-trifluoromethoxyphenyl)methoxy]methyl}-7-azabicyclo[2.2.1]hept-1-yl)methanol] | < 25 | < 25
O[C@H](c1cncc(F)c1)C12CCC(COCc3ccc(OC(F)(F)F)cc3)(CC1)N2 [Compound 490, (R)-(5-fluoro-3-pyridyl)(4-{[(p-trifluoromethoxyphenyl)methoxy]methyl}-7-azabicyclo[2.2.1]hept-1-yl)methanol] | 50 to 75 | < 25
CC(=O)N(C)[C@H]1CC[C@H](CC(C)(C)NC[C@H](O)c2cccc(F)c2)CC1 [Compound 491, N-[(1R,4r)-4-{2-[(R)-2-(m-fluorophenyl)-2-hydroxyethylamino]-2-methylpropyl}cyclohexyl]-N-methylacetamide] | > 75 | < 25
CC(=O)N(C)[C@H]1CC[C@@H](CC(C)(C)NC[C@H](O)c2cccc(F)c2)CC1 [Compound 492, N-[(1S,4s)-4-{2-[(R)-2-(m-fluorophenyl)-2-hydroxyethylamino]-2-methylpropyl}cyclohexyl]-N-methylacetamide] | 25 to 50 | < 25
CC(C)(C[C@H]1CC[C@@H](NS(=O)(=O)C(F)(F)F)CC1)NC[C@H](O)c1cccc(F)c1 [Compound 493, (R)-2-{1,1-dimethyl-2-[(1s,4S)-4-(trifluoromesylamino)cyclohexyl]ethylamino}-1-(m-fluorophenyl)-1-ethanol] | 25 to 50 | < 25
CC(C)(C[C@H]1CC[C@@H](NS(=O)(=O)C2CC2)CC1)NC[C@H](O)c1cccc(F)c1 [Compound 494, (R)-2-{1,1-dimethyl-2-[(1s,4S)-4-(cyclopropylsuflonylamino)cyclohexyl]ethylamino}-1-(m-fluorophenyl)-1-ethanol] | 25 to 50 | < 25
CNS(=O)(=O)[C@H]1CC[C@@H](CC(C)(C)NC[C@H](O)c2cncc(F)c2)CC1 [Compound 495, (R)-2-{1,1-dimethyl-2-[(1s,4S)-4-(methylaminosulfonyl)cyclohexyl]ethylamino}-1-(5-fluoro-3-pyridyl)-1-ethanol] | 50 to 75 | < 25
CC(C)(C[C@H]1CC[C@H](NS(=O)(=O)C2CC2)CC1)NC[C@H](O)c1cccc(F)c1 [Compound 496, (R)-2-{1,1-dimethyl-2-[(1r,4R)-4-(cyclopropylsulfonylamino)cyclohexyl]ethylamino}-1-(m-fluorophenyl)-1-ethanol] | 50 to 75 | < 25
CCCS(=O)(=O)N[C@H]1CC[C@@H](CC(C)(C)NC[C@H](O)c2cccc(F)c2)CC1 [Compound 497, (R)-2-{1,1-dimethyl-2-[(1s,4S)-4-(propylsulfonylamino)cyclohexyl]ethylamino}-1-(m-fluorophenyl)-1-ethanol] | 50 to 75 | < 25
CN([C@H]1CC[C@@H](CC(C)(C)NC[C@H](O)c2cccc(F)c2)CC1)S(C)(=O)=O [Compound 498, (R)-2-{1,1-dimethyl-2-[(1s,4S)-4-(N-mesyl-N-methylamino)cyclohexyl]ethylamino}-1-(m-fluorophenyl)-1-ethanol] | 25 to 50 | < 25
CN([C@H]1CC[C@H](CC(C)(C)NC[C@H](O)c2cccc(F)c2)CC1)S(C)(=O)=O [Compound 499, (R)-2-{1,1-dimethyl-2-[(1r,4R)-4-(N-mesyl-N-methylamino)cyclohexyl]ethylamino}-1-(m-fluorophenyl)-1-ethanol] | 25 to 50 | < 25
O[C@@H](c1cccc(F)c1)C12CCC(Cc3ccc(OC(F)(F)F)cc3)(CC1)N2 [Compound 500] | < 25 | < 25
O[C@H](c1cccc(F)c1)C12CCC(Cc3ccc(OC(F)(F)F)cc3)(CC1)N2 [Compound 501, (R)-(m-fluorophenyl){4-[(p-trifluoromethoxyphenyl)methyl]-7-azabicyclo[2.2.1]hept-1-yl}methanol] | < 25 | < 25
CS(=O)(=O)N(Cc1ccccc1)[C@H]1CC[C@H](C[C@@H]2CC[C@H]([C@H](O)c3cccc(F)c3)N2)CC1 [Compound 502, (R)-[(2R,5S)-5-({(1r,4S)-4-[(benzyl)-N-mesylamino]cyclohexyl}methyl)-2-pyrrolidinyl](m-fluorophenyl)methanol] | < 25 | < 25
CS(=O)(=O)N(Cc1ccccc1)[C@H]1CC[C@H](C[C@@H]2CC[C@H]([C@@H](O)c3cccc(F)c3)N2)CC1 [Compound 503, (S)-[(2R,5S)-5-({(1r,4S)-4-[(benzyl)-N-mesylamino]cyclohexyl}methyl)-2-pyrrolidinyl](m-fluorophenyl)methanol] | < 25 | < 25
CS(=O)(=O)N[C@H]1CC[C@H](C[C@@H]2CC[C@H]([C@H](O)c3cccc(F)c3)N2)CC1 [Compound 504, (R)-[(2R,5S)-5-{[(1r,4S)-4-(mesylamino)cyclohexyl]methyl}-2-pyrrolidinyl](m-fluorophenyl)methanol] | 50 to 75 | < 25
CS(=O)(=O)N[C@H]1CC[C@H](C[C@@H]2CC[C@H]([C@@H](O)c3cccc(F)c3)N2)CC1 [Compound 505, (S)-[(2R,5S)-5-{[(1r,4S)-4-(mesylamino)cyclohexyl]methyl}-2-pyrrolidinyl](m-fluorophenyl)methanol] | < 25 | < 25
CC(=O)N(C)[C@H]1CC[C@H](CC(C)(C)NC[C@H](O)c2cncc(F)c2)CC1 [Compound 506, N-[(1R,4r)-4-{2-[(R)-2-(5-fluoro-3-pyridyl)-2-hydroxyethylamino]-2-methylpropyl}cyclohexyl]-N-methylacetamide] | > 75 | 25 to 50
CC(=O)N(C)[C@H]1CC[C@@H](CC(C)(C)NC[C@H](O)c2cncc(F)c2)CC1 [Compound 507, N-[(1S,4s)-4-{2-[(R)-2-(5-fluoro-3-pyridyl)-2-hdyroxyethylamino]-2-methylpropyl}cyclohexyl]-n-methylacetamide] | 50 to 75 | < 25
CS(=O)(=O)N(Cc1ccccc1)[C@H]1CC[C@@H](C[C@@H]2CC[C@H]([C@H](O)c3cccc(F)c3)N2)CC1 [Compound 508, (R)-[(2R,5S)-5-({(1s,4R)-4-[(benzyl)-N-mesylamino]cyclohexyl}methyl)-2-pyrrolidinyl](m-fluorophenyl)methanol] | < 25 | < 25
CS(=O)(=O)N(Cc1ccccc1)[C@H]1CC[C@@H](C[C@@H]2CC[C@H]([C@@H](O)c3cccc(F)c3)N2)CC1 [Compound 509, (S)-[(2R,5S)-5-({(1s,4R)-4-[(benzyl)-N-mesylamino]cyclohexyl}methyl)-2-pyrrolidinyl](m-fluorophenyl)methanol] | < 25 | < 25
